Results on four molecules are retold here after patent publication US10716769B2 (GUANGZHOU JTREAT BIOSCI. LTD., priority 2015, dated 2020).

Each structure is given as a SMILES string.

For assay [1], the target named is T1, HIV-1 integrase (Human immunodeficiency virus type 1 group M subtype B, UniProt P04585).
T1 construct: purified HIV-1 integrase is added to donor substrates coated 96-well plate; made in house
The assay can be described thus: Test of sample inhibition to HIV-1 integrase (ELISA, strand transfer). It counts as biochemical. The method, then:
The half-inhibitory concentration IC50 for 3′ excision of the substrate and the strand transfer is in the range of 88.92-10.20 μg/ml, in which the best inhibitory activity of the compound is higher than that of the monomer compound of hydroxybenzoic acid. The mechanism of the HIV-1 integrase is a two-step reaction: 1) 3′ Processing: the integrase binds to the specific sequences of the long terminal repeat region (LTR) of the proviral DNA to form a stable complex, then the endonucleotides of 3′ end of nucleoside is processed, and the GT dinucleotide of the sequence . . . […] Thus, the activity of the integrase inhibitor is embodied in inhibiting the excision of the 3′end of the viral DNA or the strand transfer, and is represented by a half-inhibitory concentration IC50.
In vitro integrase test, 30 synthetic oligonucleotides are used as donor substrates, 20 synthetic oligonucleotides are used as target substrates. Purified HIV-1 integrase is added to donor substrates coated 96-well plate, ELISA reaction is performed, the product of the strand transfer of target DNA is detected, color development is conducted by biotin-labeled alkaline phosphatase system, and the microplate reader is used to measure the OD value.
First, inhibitors of the enzyme may be screened by adding a sample to the reaction system. Before use, the sample is prepared with DMSO to an appropriate concentration, and then is diluted 5 times at 4 dilutions. The sample after dilution is added into the donor substrate coated 96-well plate, and then added to the reaction Buffer containing the genetically engineered target enzyme and the biotin-target substrate, incubated under optimal reaction conditions, and colored by biotin-labeled alkaline phosphatase system, and the OD value for absorbance value at 405 nm is measured.
30 synthetic oligonucleotides are used as donor substrates, 20 synthetic oligonucleotides are used as target substrates, purified HIV-1 integrase is added to donor substrates coated 96-well plate, ELISA reaction is performed, the product of the strand transfer of target DNA is detected, color development is conducted by biotin-labeled alkaline phosphatase system, and the OD value is measured by a microplate reader. The addition of samples to the reaction system can be used to screen inhibitors for the enzyme.
1. HIV-1 IN: it is extracted and saved by Chinese National New Drug Screening Center and Institute of Pharmaceutical Biotechnology under Chinese Academy of Medical Sciences.
2. Sample Treatment: 10 samples A1-A10 dissolved into DMSO prior to use are prepared into suitable concentrations, and then diluted 5 times at 4 dilutions. Donor substrate and target substrate are from Shanghai Biochemical Synthesis.
3. Method for Test: the samples after dilution are added into the donor substrate coated 96-well plate, then added to the reaction Buffer containing the genetically engineered target enzyme and the biotin-target substrate, incubated under optimal reaction conditions, and colored by biotin-labeled alkaline phosphatase system, and the OD value for absorbance value at 405 nm is measured.

Assay [2] has as its system human cervical cancer cell line (HeLa). Description: MTT in vitro tumor cell inhibition. It counts as cell-based. The settings on record: 3 days. An excerpt:
(§1) An effective amount of the above compounds and/or the compositions containing the same used as an active ingredient have an effect on inhibiting the tumor cells. The present invention detects the inhibitory effect of the hydroxy-substituted benzophenone compounds on the proliferation of the in vitro cultured human tumor cells by the methylthiazolyl tetrazolium method.
(§2) The method is used to detect cell viability. […] Particles can be dissolved by dimethyl sulfoxide (DMSO) isopropyl alcohol or 10% acidified SDS (sodium dodecyl sulfate), and a microplate reader is used to measure the OD value at A570 wavelength, which indirectly reflects the number of live cells. The method is used for detection of the cytokines bioactivity, as well as anti-tumor drugs and tumor radiosensitivity and cytotoxicity test, and has the characteristics of being simple, fast, economical, sensitive and accurate and having good reproducibility and no need to use radionuclides. This method has been widely used in screening preclinical anticancer drugs and detecting the drug sensitivity of fresh tumor cells. The method is as below:
(§3) (1) The tumor cell suspension prepared by 0.25% of trypsin digestion and adjusted to a cell concentration of 10^5/ml with RPMI1640 containing 10% fetal calf serum is added to a 96-well plate with 100 μl for each well, cultured 24 hours, and then different dosages of drugs are added with 100 μl/well, for which, the negative control groups, positive control groups and withering wells are set, and 4 parallel wells are set for each group.
(§4) (2) They are continually cultured in incubator containing 5% of CO2 at 37° C. for 24 to 48 hours. MTT solution (5 g/L) is added to each well before the termination of the experiment. The OD value at A570 nm is detected by microplate reader. The OD value at A570 of the negative group without the addition of drugs is taken as a control. The cell survival rate and cell inhibition rate of drugs are calculated according to the following formula: Cell survival rate=(OD value of test group/OD value of control group)×100% Cell inhibition rate (%)=(OD value of the control group−OD value of the test group/(OD value of the control group−OD value of the blank group)
(§5) 1. Tumor cell lines: human glioma cell line (U251), human colon cancer cell line (LOVO), human hepatoma cell line (HepG2), human lung cancer cell line (PC84045), human endometrial carcinoma cell line (JEC), human renal carcinoma (GRC), human gastric cancer cell line (MCG804), human cervical cancer cell line (HeLa), human hepatocellular carcinoma cell line (BEL-7402) and human umbilical vein endothelial cell line (ECV304) purchased from Animal Experimental Center of Zhongshan Medical College, and preserved by the present laboratory.
(§6) The tumor cell lines are cultured in RPMI-1640 medium containing 15% of the newborn bovine serum in a conventional manner, placed in the humidification incubator containing 5% of CO2 for being cultured at 37° C., and are observed for growth by an inverted microscope. A subculture is conducted every about 3-5 days, the cells in logarithmic growth phase are adopted to be digested with 0.25% of trypsin, and the serum-free RPMI-1640 medium is used for culturing the cell suspension; the blood counting plate makes counting, the trypan blue exclusion tests the cell activity, and the cell viability>95% is used for formal tests.
(§7) Liquid preparation: the compounds are labeled with the codes respectively, DMSO is used to dissolve each compound, the bacterial filter is used to remove bacteria, and each compound is prepared into 10^−4 g/ml, 10^−5 g/ml, 10^−6 g/ml and preserved at 4° C. for use. […]

Assay [3] has as its system human endometrial carcinoma cell line (JEC). Description: MTT in vitro tumor cell inhibition. It counts as cell-based. The settings on record: 3 days.
Excerpt: as §1, §2, §3, §4, §5, §6, §7

Assay [4] relates to human glioma cell line (U251). Description: MTT in vitro tumor cell inhibition. The settings on record: 3 days; for Inhibitory rate, sensitivity class: U251, 10^−6 g/ml. It counts as cell-based.
Excerpt: as §1, §2, §3, §4, §5, §6, §7

For assay [5], the system named is human hepatoma cell line (HepG2). Description: MTT in vitro tumor cell inhibition. It counts as cell-based. The settings on record: 3 days.
Excerpt: as §1, §2, §3, §4, §5, §6, §7

Assay [6] has as its system human lung cancer cell line (PC84045). The assay can be described thus: MTT in vitro tumor cell inhibition. The assay is classed as cell-based. The settings on record: 3 days.
Excerpt: as §1, §2, §3, §4, §5, §6, §7

With `O=C(c1cc(O)c(O)cc1O)c1ccc(O)c(O)c1O`, the IC50 in assay [1] was 37.8 µM. In addition, the Inhibitory rate % in assay [2] (10^−4 g/ml) came to 60.92%; in assay [3] (10^−4 g/ml) it was 83.16%; in assay [3] (10^−5 g/ml), 42.57%; in assay [4] (U251, 10^−4 g/ml), 68.82%; in assay [4] (U251, 10^−5 g/ml), 31.35%; in assay [5] (HepG2, 10^−4 g/ml), 85.12%. In addition, the Inhibitory rate % in assay [5] (HepG2, 10^−5 g/ml) was found to be 51.57%; in assay [6] (PC84045, 10^−4 g/ml), 82.49%; in assay [6] (PC84045, 10^−5 g/ml), 70.97%; in assay [6] (PC84045, 10^−6 g/ml), 49.70%. Besides, the “Inhibitory rate, sensitivity class” value in assay [2] (10^−5 g/ml) is “insensitive (<30% means insensitive)”; in assay [2] (10^−6 g/ml), “insensitive (<30% means insensitive)”; in assay [3] (10^−6 g/ml), “insensitive (<30% means insensitive)”; in assay [4] it was “insensitive (<30% means insensitive)”; in assay [5] (HepG2, 10^−6 g/ml) it was “insensitive (<30% means insensitive)”.
Consider `O=C(c1ccc(O)c(O)c1O)c1ccc(O)c(O)c1O` [2,3,4,2′,3′,4′-hexahydroxybenzophenone], for which, in assay [1], 32.8 µM corresponded to half-maximal inhibition (IC50). For the same molecule, the Inhibitory rate % came out at 61.12% in assay [2] (10^−4 g/ml); 85.63% in assay [3] (10^−4 g/ml); 42.79% in assay [3] (10^−5 g/ml); 83.26% in assay [4] (U251, 10^−4 g/ml); 30.87% in assay [4] (U251, 10^−5 g/ml); 86.15% in assay [5] (HepG2, 10^−4 g/ml). Also, the Inhibitory rate % in assay [5] (HepG2, 10^−5 g/ml) came out at 75.54%; in assay [6] (PC84045, 10^−4 g/ml) it was 84.60%; in assay [6] (PC84045, 10^−5 g/ml), 72.34%. For the same molecule, the “Inhibitory rate, sensitivity class” value in assay [2] (10^−5 g/ml) is recorded as “insensitive (<30% means insensitive)”; in assay [2] (10^−6 g/ml) it was “insensitive (<30% means insensitive)”; in assay [3] (10^−6 g/ml) it was “insensitive (<30% means insensitive)”; in assay [4], “insensitive (<30% means insensitive)”; in assay [5] (HepG2, 10^−6 g/ml) it was “insensitive (<30% means insensitive)”; in assay [6] (PC84045, 10^−6 g/ml), “insensitive (<30% means insensitive)”.
Consider `O=C(c1ccccc1)c1ccc(O)c(O)c1O` [2,3,4-trihydroxybenzophenone], for which half-maximal inhibition in assay [1] (IC50) required 52.6 µM. Besides, the Inhibitory rate % was found to be 89.81% in assay [2] (10^−4 g/ml); 34.53% in assay [2] (10^−5 g/ml); 86.79% in assay [3] (10^−4 g/ml); 40.97% in assay [3] (10^−5 g/ml); 85.42% in assay [4] (U251, 10^−4 g/ml); 43.57% in assay [4] (U251, 10^−5 g/ml). For the same molecule, the Inhibitory rate % in assay [5] (HepG2, 10^−4 g/ml) stood at 93.40%; in assay [5] (HepG2, 10^−5 g/ml), 58.05%; in assay [6] (PC84045, 10^−4 g/ml) it was 85.75%; in assay [6] (PC84045, 10^−5 g/ml) it was 32.79%. For the same molecule, the “Inhibitory rate, sensitivity class” value is “insensitive (<30% means insensitive)” in assay [2] (10^−6 g/ml); “insensitive (<30% means insensitive)” in assay [3] (10^−6 g/ml); “insensitive (<30% means insensitive)” in assay [4]; “insensitive (<30% means insensitive)” in assay [5] (HepG2, 10^−6 g/ml); “insensitive (<30% means insensitive)” in assay [6] (PC84045, 10^−6 g/ml).
For `O=C(c1ccc(O)cc1O)c1ccc(O)cc1O` [2,4,2′,4′-tetrahydroxybenzophenone], half-maximal inhibition in assay [1] (IC50) required 45.6 µM. Further, the Inhibitory rate % worked out at 31.05% in assay [2] (10^−4 g/ml); 46.70% in assay [3] (10^−4 g/ml); 74.85% in assay [5] (HepG2, 10^−4 g/ml); 53.40% in assay [6] (PC84045, 10^−4 g/ml). For the same molecule, the “Inhibitory rate, sensitivity class” value in assay [2] (10^−5 g/ml) is listed as “insensitive (<30% means insensitive)”; in assay [2] (10^−6 g/ml), “insensitive (<30% means insensitive)”; in assay [3] (10^−5 g/ml), “insensitive (<30% means insensitive)”; in assay [3] (10^−6 g/ml), “insensitive (<30% means insensitive)”; in assay [5] (HepG2, 10^−5 g/ml), “insensitive (<30% means insensitive)”; in assay [5] (HepG2, 10^−6 g/ml) it was “insensitive (<30% means insensitive)”. For the same molecule, the “Inhibitory rate, sensitivity class” value was “insensitive (<30% means insensitive)” in assay [6] (PC84045, 10^−5 g/ml) and “insensitive (<30% means insensitive)” in assay [6] (PC84045, 10^−6 g/ml).

Usually IC50 stands for the concentration at which inhibition is half-maximal.
